Results published in ChEMBL document CHEMBL5260828, “Amphiphilic glycoconjugates as potential anti-cancer chemotherapeutics” (Eur J Med Chem, 2018).
In brackets after ≈: the same amount, converted by molar mass.

How the values were obtained:
A549 [1] = experiment: Cytotoxicity against human A549 cells incubated for 72 hrs by MTT assay; format: functional, cell-based; conditions: A549, 72 h
K562 = experiment: Cytotoxicity against human K562 cells; format: functional, cell-based
HeLa [2] = experiment: Cytotoxicity against human HeLa cells assessed as inhibition of cell proliferation incubated for 72 hrs by MTT assay; format: functional, cell-based
HL-60 = experiment: Cytotoxicity against human HL-60 cells assessed as inhibition of cell proliferation incubated for 72 hrs by MTT assay; format: functional, cell-based; conditions: HL-60, 72 h
DU-145 = experiment: Cytotoxicity against human DU-145 cells assessed as reduction in cell viability incubated for 48 hrs by MTS assay; format: functional, cell-based
JIMT-1 = experiment: Cytotoxicity against human JIMT-1 cells assessed as reduction in cell viability incubated for 48 hrs by MTS assay; format: functional, cell-based
MIA PaCa-2 = experiment: Cytotoxicity against human MIA PaCa-2 cells assessed as reduction in cell viability incubated for 48 hrs by MTS assay; format: functional, cell-based
PC-3 = experiment: Cytotoxicity against human PC-3 cells assessed as reduction in cell viability incubated for 48 hrs by MTS assay; format: functional, cell-based
BT-474 = experiment: Cytotoxicity against human BT-474 cells assessed as reduction in cell viability incubated for 48 hrs by MTS assay; format: functional, cell-based
MDA-MB-231 = experiment: Cytotoxicity against human MDA-MB-231 cells assessed as reduction in cell viability incubated for 48 hrs by MTS assay; format: functional, cell-based
MCF7 = experiment: Cytotoxicity against human MCF7 cells incubated for 48 hrs by MTT assay; format: functional, cell-based; conditions: MCF7, 48 h
HeLa [3] = experiment: Cytotoxicity against human HeLa cells incubated for 48 hrs by MTT assay; format: functional, cell-based
SGC-7901 = experiment: Cytotoxicity against human SGC-7901 cells incubated for 48 hrs by MTT assay; format: functional, cell-based; conditions: SGC-7901, 48 h
HepG2 = experiment: Cytotoxicity against human HepG2 cells incubated for 48 hrs by MTT assay; format: functional, cell-based; conditions: HepG2, 48 h
A549 [4] = experiment: Cytotoxicity against human A549 cells incubated for 48 hrs by MTT assay; format: functional, cell-based; conditions: A549, 48 h
Fatty acid synthase = Fatty acid synthase (Gallus gallus, UniProt P12276); experiment: Inhibition of Fatty acid synthase in chicken liver using [3H]-acetyl CoA as substrate preincubated for 30 mins followed by substrate addition and measured after 10 mins in presence of NADPH by scintillation counting analysis; format: tissue-based
[5] = target: RAC-alpha serine/threonine-protein kinase (Homo sapiens, UniProt P31749); experiment: Inhibition of AKT1 (unknown origin) in presence of ATP by ELISA
Chain of RAC-alpha serine/threonine-protein kinase (P31749 whole entry): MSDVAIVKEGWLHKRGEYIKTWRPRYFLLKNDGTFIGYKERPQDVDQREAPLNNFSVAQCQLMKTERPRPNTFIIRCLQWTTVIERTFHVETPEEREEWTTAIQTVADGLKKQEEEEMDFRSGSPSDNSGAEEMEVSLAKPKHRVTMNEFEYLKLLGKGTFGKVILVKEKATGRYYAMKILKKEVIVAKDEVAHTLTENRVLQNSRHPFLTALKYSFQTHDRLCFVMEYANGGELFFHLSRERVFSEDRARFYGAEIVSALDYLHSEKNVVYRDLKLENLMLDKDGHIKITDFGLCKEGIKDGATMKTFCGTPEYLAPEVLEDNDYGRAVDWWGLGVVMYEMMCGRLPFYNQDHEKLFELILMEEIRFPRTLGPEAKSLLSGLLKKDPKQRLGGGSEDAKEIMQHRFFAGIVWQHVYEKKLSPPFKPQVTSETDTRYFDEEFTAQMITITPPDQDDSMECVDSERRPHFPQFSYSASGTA

Chain of Fatty acid synthase (P12276 whole entry): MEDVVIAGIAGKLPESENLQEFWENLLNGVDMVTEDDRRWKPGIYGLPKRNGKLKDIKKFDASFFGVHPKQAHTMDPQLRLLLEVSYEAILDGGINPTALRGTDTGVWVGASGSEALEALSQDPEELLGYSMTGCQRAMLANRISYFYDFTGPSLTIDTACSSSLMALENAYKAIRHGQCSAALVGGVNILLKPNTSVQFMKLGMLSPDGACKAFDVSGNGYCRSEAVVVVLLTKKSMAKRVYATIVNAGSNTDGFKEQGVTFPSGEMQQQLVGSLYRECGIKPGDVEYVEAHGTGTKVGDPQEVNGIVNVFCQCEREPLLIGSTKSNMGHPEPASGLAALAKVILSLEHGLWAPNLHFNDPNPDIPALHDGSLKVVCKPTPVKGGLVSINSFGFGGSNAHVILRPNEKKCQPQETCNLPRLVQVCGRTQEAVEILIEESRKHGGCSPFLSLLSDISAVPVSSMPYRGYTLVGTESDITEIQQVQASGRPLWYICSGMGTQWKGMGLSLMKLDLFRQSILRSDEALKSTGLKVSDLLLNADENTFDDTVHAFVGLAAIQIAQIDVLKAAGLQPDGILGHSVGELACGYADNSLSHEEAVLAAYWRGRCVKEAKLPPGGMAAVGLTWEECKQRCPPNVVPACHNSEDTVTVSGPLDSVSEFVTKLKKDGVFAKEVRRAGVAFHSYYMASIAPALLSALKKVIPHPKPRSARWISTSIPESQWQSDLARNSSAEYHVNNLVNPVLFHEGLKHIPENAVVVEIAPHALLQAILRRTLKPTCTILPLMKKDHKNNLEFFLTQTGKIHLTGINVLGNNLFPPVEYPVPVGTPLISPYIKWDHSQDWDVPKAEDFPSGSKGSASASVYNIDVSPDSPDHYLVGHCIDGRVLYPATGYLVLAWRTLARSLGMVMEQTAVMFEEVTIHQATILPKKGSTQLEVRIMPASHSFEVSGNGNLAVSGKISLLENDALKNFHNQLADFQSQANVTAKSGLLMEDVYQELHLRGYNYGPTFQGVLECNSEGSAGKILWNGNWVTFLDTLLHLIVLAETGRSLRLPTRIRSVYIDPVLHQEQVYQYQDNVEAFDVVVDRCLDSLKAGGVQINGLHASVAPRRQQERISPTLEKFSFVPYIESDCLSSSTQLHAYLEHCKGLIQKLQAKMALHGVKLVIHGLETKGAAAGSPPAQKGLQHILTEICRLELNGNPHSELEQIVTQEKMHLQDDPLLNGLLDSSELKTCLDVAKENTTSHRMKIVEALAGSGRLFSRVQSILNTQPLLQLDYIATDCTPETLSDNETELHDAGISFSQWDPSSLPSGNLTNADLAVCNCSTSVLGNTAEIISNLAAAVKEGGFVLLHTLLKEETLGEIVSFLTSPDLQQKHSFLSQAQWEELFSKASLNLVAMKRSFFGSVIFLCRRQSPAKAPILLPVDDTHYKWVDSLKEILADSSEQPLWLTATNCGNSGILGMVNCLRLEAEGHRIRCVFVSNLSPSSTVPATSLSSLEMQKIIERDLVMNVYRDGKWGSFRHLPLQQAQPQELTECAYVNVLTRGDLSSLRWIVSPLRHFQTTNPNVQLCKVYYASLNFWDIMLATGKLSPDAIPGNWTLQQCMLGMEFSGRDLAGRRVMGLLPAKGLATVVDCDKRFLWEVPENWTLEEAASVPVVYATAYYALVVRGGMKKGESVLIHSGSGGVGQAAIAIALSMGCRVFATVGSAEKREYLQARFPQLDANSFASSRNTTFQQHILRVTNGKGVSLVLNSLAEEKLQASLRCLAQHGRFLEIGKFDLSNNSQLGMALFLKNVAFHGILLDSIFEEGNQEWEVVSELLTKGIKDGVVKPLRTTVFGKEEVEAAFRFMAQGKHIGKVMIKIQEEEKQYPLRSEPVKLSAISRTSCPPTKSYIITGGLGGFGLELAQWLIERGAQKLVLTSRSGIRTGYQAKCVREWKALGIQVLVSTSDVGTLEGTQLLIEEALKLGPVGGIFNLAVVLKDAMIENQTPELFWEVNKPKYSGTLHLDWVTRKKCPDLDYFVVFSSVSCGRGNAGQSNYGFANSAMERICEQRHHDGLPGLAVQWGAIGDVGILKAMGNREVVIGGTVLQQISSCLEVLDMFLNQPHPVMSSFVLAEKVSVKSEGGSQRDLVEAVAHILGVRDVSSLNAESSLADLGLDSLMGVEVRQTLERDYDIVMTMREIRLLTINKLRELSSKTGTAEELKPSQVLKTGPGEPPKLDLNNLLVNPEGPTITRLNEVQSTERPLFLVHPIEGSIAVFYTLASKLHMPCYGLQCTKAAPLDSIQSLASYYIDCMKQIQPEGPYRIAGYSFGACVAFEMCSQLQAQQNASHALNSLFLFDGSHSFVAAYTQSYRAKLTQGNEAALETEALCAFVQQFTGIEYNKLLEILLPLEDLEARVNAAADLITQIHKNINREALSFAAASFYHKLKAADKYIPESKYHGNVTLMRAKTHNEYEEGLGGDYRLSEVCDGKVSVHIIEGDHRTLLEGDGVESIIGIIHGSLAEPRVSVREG

Question: With CCCCCCCCCCCCCC(=O)OCc1cn(C[C@H]2O[C@H](OC)[C@H](O)[C@@H](O)[C@@H]2O)nn1 as the compound, how does the IC50 (A549 [1]) read?
Answer: Its IC50 is 21 µM.

Question: COC(C)(C)/C=C/C/C(C)=C/CC/C(C)=C/Cc1cc(O)c(C)cc1O[C@@H]1O[C@H](COC(C)=O)[C@H](OC(C)=O)[C@H](OC(C)=O)[C@H]1O was tested. Which IC50 (K562) did it give?
Answer: Its IC50 is 9.4 µg/mL (≈ 14.5 µM).

Question: How did the IC50 (HeLa [2]) turn out when C/C=C/C/C(C)=C\[C@H]1C/C=C/C=C/C[C@H](C)/C=C(\C)[C@@H](OC)CCC[C@@H](O[C@@H]2O[C@H](CO)[C@@H](O)[C@H](OC)[C@H]2O)CC(=O)O1 was run?
Answer: The IC50 was 0.19 µM.

Question: And the IC50 (HL-60)?
Answer: The IC50 was 0.071 µM.

Question: With CCCCCCCCCCCC(=O)OCc1cn(C[C@H]2O[C@H](OC)[C@H](O)[C@@H](O)[C@H]2O)nn1 as the compound, how does the IC50 (A549 [1]) read?
Answer: The IC50 was 21 µM.

Question: Which IC50 (K562) does the source give for CC(=O)OC[C@H]1O[C@@H](Oc2cc(C)c(O)cc2C/C=C(\C)CC/C=C(\C)C[C@@H](O)C=C(C)C)[C@H](O)[C@@H](OC(C)=O)[C@H]1OC(C)=O here?
Answer: The IC50 was 2.6 µg/mL (≈ 4.11 µM).

Question: Which IC50 (DU-145; DU-145, 48 h) does the source give for CCCCCCCCCCCCCCCCOC[C@H](CO[C@H]1O[C@H](CN)[C@@H](O)[C@H](O)[C@H]1NC(=O)CCCc1ccc(N(CCCl)CCCl)cc1)OC here?
Answer: The IC50 was 6 µM.

Question: And the IC50 (JIMT-1; JIMT-1, 48 h)?
Answer: Its IC50 is 6 µM.

Question: What about the IC50 (MIA PaCa-2; MIA PaCa-2, 48 h) of the same compound?
Answer: The IC50 was 6 µM.

Question: What about the IC50 (PC-3; PC-3, 48 h) of the same compound?
Answer: Its IC50 is 6 µM.

Question: And the IC50 (BT-474; BT-474, 48 h)?
Answer: Its IC50 is 6 µM.

Question: And the IC50 (MDA-MB-231; MDA-MB-231, 48 h)?
Answer: The IC50 was 6 µM.

Question: Which results are given for CCCCCCCC(=O)O[C@H]1[C@H](O[C@@H]2[C@H]3OC(=O)CCCCCCCCC[C@@H](CCCCC)O[C@@H]4O[C@H](CO)[C@@H](O)[C@H](O)[C@H]4O[C@H](O[C@H]2C)[C@@H]3O)O[C@@H](C)[C@H](O[C@@H]2O[C@@H](C)[C@H](OC(=O)[C@@H](C)CC)[C@@H](OC(=O)/C=C/c3ccccc3)[C@H]2O)[C@H]1O[C@@H]1O[C@@H](C)[C@H](O)[C@@H](O)[C@H]1O?
Answer: IC50 (MCF7): 4.28 µM; IC50 (HeLa [3]): 4.28 µM; IC50 (SGC-7901): 4.28 µM; IC50 (HepG2): 4.28 µM; IC50 (A549 [4]): 4.28 µM

Question: For CCCCCCCCCCCCCCCCCCC/C=C/C(=O)OC[C@H](CO[C@@H]1O[C@H](CO[C@H]2O[C@H](CO)[C@H](O)[C@H](O)[C@H]2O)[C@H](O)[C@H](O)[C@H]1O)OC(=O)CCCCCCCCCCCCCCCCCCC, which IC50 (Fatty acid synthase) is on record?
Answer: Its IC50 is 15.6 µM.

Question: Which results are given for CCCCCCCCCC(=O)O[C@H]1[C@H](O[C@@H]2[C@H]3OC(=O)CCCCCCCCC[C@@H](CCCCC)O[C@@H]4O[C@H](CO)[C@@H](O)[C@H](O)[C@H]4O[C@H](O[C@H]2C)[C@@H]3O)O[C@@H](C)[C@H](O[C@@H]2O[C@@H](C)[C@H](O/C(O)=C(/C)CC)[C@@H](O)[C@H]2OC(=O)/C=C/c2ccccc2)[C@H]1O[C@@H]1O[C@@H](C)[C@H](O)[C@@H](O)[C@H]1O?
Answer: IC50 (MCF7): 4.28 µM; IC50 (HeLa [3]): 4.28 µM; IC50 (SGC-7901): 4.28 µM; IC50 (HepG2): 4.28 µM; IC50 (A549 [4]): 4.28 µM

Question: How did the IC50 (HeLa [2]) turn out when C/C=C/C/C(C)=C/[C@H]1C/C=C/C=C/C[C@H](C)/C=C(\C)[C@@H](OC)C/C=C/[C@@H](O[C@@H]2O[C@H](CO)[C@@H](O)[C@H](OC)[C@H]2O)CC(=O)O1 was run?
Answer: The IC50 was 3.1 µM.

Question: And the IC50 (HL-60)?
Answer: Its IC50 is 0.66 µM.

Question: CCCCCCCCCC(=O)O[C@H]1[C@H](O[C@@H]2[C@H]3OC(=O)CCCCCCCCC[C@@H](CCCCC)O[C@@H]4O[C@H](CO)[C@@H](O)[C@H](O)[C@H]4O[C@H](O[C@H]2C)[C@@H]3O)O[C@@H](C)[C@H](O[C@@H]2O[C@@H](C)[C@H](OC(=O)[C@@H](C)CC)[C@@H](O)[C@H]2O)[C@H]1O[C@@H]1O[C@@H](C)[C@H](O)[C@@H](O)[C@H]1O was tested. Which IC50 (MCF7) did it give?
Answer: The IC50 was 4.28 µM.

Question: What about the IC50 (HeLa [3]) of the same compound?
Answer: The IC50 was 4.28 µM.

Question: What about the IC50 (SGC-7901) of the same compound?
Answer: The IC50 was 4.28 µM.

Question: What about the IC50 (HepG2) of the same compound?
Answer: The IC50 was 4.28 µM.

Question: What about the IC50 (A549 [4]) of the same compound?
Answer: Its IC50 is 4.28 µM.

Question: How did the IC50 (K562) turn out when CC(=O)OC[C@H]1O[C@@H](Oc2cc(C)c(O)cc2C/C=C(\C)CC/C=C(\C)CCC=C(C)C)[C@H](O)[C@@H](OC(C)=O)[C@H]1OC(C)=O was run?
Answer: The IC50 was 5.2 µg/mL (≈ 8.43 µM).

Question: For CCCCCCCCCOC(=O)O[C@H](COC(=O)CCCCCCCCC)COP(=O)(O)O[C@@H]1[C@H](O)[C@H](OP(=O)(O)O)[C@@H](O)[C@H](O)[C@H]1O, which IC50 [5] is on record?
Answer: Its IC50 is > 100 µM.

Question: Which IC50 (MCF7) does the source give for CCCCCCCCCC(=O)O[C@H]1[C@H](O[C@@H]2[C@H]3OC(=O)CCCCCCCCC[C@@H](CCCCC)O[C@@H]4O[C@H](CO)[C@@H](O)[C@H](O)[C@H]4O[C@H](O[C@H]2C)[C@@H]3O)O[C@@H](C)[C@H](O[C@@H]2O[C@@H](C)[C@H](OC(=O)[C@@H](C)CC)[C@@H](OC(=O)/C=C/c3ccccc3)[C@H]2O)[C@H]1O[C@@H]1O[C@@H](C)[C@H](O)[C@@H](O)[C@H]1O here?
Answer: Its IC50 is 4.28 µM.

Question: What about the IC50 (HeLa [3]) of the same compound?
Answer: Its IC50 is 4.28 µM.

Question: And the IC50 (SGC-7901)?
Answer: Its IC50 is 4.28 µM.

Question: What about the IC50 (HepG2) of the same compound?
Answer: The IC50 was 4.28 µM.

Question: And the IC50 (A549 [4])?
Answer: The IC50 was 4.28 µM.

Question: Which IC50 (K562) does the source give for CC(=O)OC[C@H]1O[C@@H](Oc2cc(C)c(O)cc2C/C=C(\C)CC/C=C(\C)CC(=O)CC(C)C)[C@H](O)[C@@H](OC(C)=O)[C@H]1OC(C)=O here?
Answer: Its IC50 is 8.1 µg/mL (≈ 12.8 µM).

Question: What does the source list for O=C(O)CCCc1ccc(N(CCCl)CCCl)cc1 [CHLORAMBUCIL]?
Answer: CC50 (DU-145; DU-145, time 48 hrs): > 150 µM; CC50 (JIMT-1; JIMT-1, time 48 hrs): > 150 µM; CC50 (MIA PaCa-2; MIA PaCa-2, time 48 hrs): > 150 µM; CC50 (PC-3; PC-3, time 48 hrs): > 150 µM; CC50 (BT-474; BT-474, time 48 hrs): > 150 µM; CC50 (MDA-MB-231; MDA-MB-231, time 48 hrs): > 150 µM
